Structures can show the parent of a compound that is named as a salt.
Key:
[1] = target: T1, catalytic domain of human recombinant MMP-3 (Homo sapiens, UniProt P08254); assay: In vitro MMP inhibition assay, MMP-3 catalytic domain (fluorogenic peptide substrate cleavage, Ki); assay type: biochemical; details: human MMP-3, catalytic domain (CD); read-out: hMMP Ki 03/CD
T1 construct: made in house
Method: (§1) Matrix Metalloproteinase inhibitor compounds were analyzed in in vitro MMP Inhibition assays to determine their ability to inhibit the MMP cleavage of peptide substrates. Inhibition constants (Ki) were calculated from the assayed compound-MMP interactions.
(§2) Human recombinant MMP-1, MMP-2, MMP-3, MMP-7, MMP-9, MMP-12, MMP-13, MMP-14 and MMP-15 were used in these assays. The enzymes are prepared following known laboratory procedures. Protocols for the preparation and use of these enzymes are available in the scientific literature. See, e.g., Enzyme Nomenclature (Academic Press, San Diego, Calif., 1992) and the citations therein. See also Frije et al., J. Biol. Chem., 26(24), 16766-73 (1994).
The catalytic domain MMP-3 cDNA may be used to express the catalytic domain enzyme in E. coli inclusion bodies. Then the enzyme is solubilized in urea, purified on a preparative […] reverse phase HPLC column, and refolded in the presence of zinc acetate and purified for use.
The fluorogenic, methoxycoumarin-containing polypeptide substrate Mca-Arg-Pro-Lys-Pro-Val-Glu-Nva-Trp-Arg-Lys(Dnp)-NH2 (Bachem catalog number M-2110) was used as the MMP substrate in the MMP inhibition assays for catalytic domain of human recombinant MMP-3 (which refers to the catalytic domain of stromelysin). Here, “MCA” is 7-methoxycoumarin-4-yl acetyl and “Dpa” is 3-(2,4-dinitrophenyl)-L-2,3-di-aminopropionyl group. In the absence of MMP inhibitory activity, the substrate is cleaved at the Gly-Leu peptide bond. The cleavage separates the highly fluorogenic peptide from the 2,4-dinitrophenyl quencher, resulting in an increase of fluorescent intensity.
For the human MMP-3 assay, dilutions of the inhibitors (or salts thereof) were prepared in 100% DMSO. The stock solutions were diluted in Buffer B (50 mM N-morpholinoethane sulfonate (“MES”), 100 mM NaCl, 10 mM CaCl2, 0.005% polyoxyethylene 23 lauryl ether, pH 6.0)) to obtain solutions with different compound concentrations, i.e., assay solutions with different concentrations of the assayed MMP inhibitory compound in 1% DMSO. The experiment controls contained the same amount of Buffer B/DMSO as the assayed sample, but contained no inhibitor.
(§3) To determine Ki, the inhibitor samples are incubated at room temperature for 1 hr in the presence of enzyme and then 4 μM of appropriate MMP substrate was added, and samples were analyzed on a Tecan SpectraFlour Plus plate reader. The excitation wavelength is 330 nm, and the emission (fluorescence) wavelength is 420 nm. In the absence of MMP inhibitory activity, the substrate is cleaved at the Gly-Leu bond resulting in an increase of relative fluorescence. Inhibition is observed as a reduced rate of increase in relative fluorescence.
The inhibitors are analyzed using a single low enzyme concentration with a single substrate concentration fixed at or below the Km. This protocol is a modification of method by Knight et al., FEBS Lett., 296(3), 263-266 (1992). Apparent inhibitory constants are determined by non-linear regression of reaction velocity as a function of inhibitor and enzyme concentration using Morrison's equation, as described by Kuzmic, Anal. Biochem. 286, 45-50 (2000). Modifications were made in the non-linear regression method to allow a common control reaction rate and effective enzyme concentration to be shared between all dose-response relationships on a given assay plate. Since the substrate concentration was chosen to be at or below the Km, the apparent Ki's from this analysis were reported as Ki's without correction for the influence of substrate.

[2] = target: T2, Human recombinant MMP-13 (Homo sapiens, UniProt P45452); assay: In vitro MMP inhibition assay, MMP-13 (fluorogenic peptide substrate cleavage, Ki); assay type: biochemical; details: human MMP-13, full length (FL); read-out: hMMP Ki 13/FL
T2 construct: made in house; host or cells: baculovirus expression (insect cells)
Method: as §1, §2
The MMP-13 may be obtained as a proenzyme from a full-length cDNA clone using baculovirus expression, as described by V. A. Luckow, “Insect Cell Expression Technology,” Protein Engineering: Principles and Practice, pp. 183-218 (edited by J. L. Cleland et al., Wiley-Liss, Inc., 1996). The expressed proenzyme was first purified over a heparin agarose column, and then over a chelating zinc chloride column. Further details on baculovirus expression systems may be found in, for example, Luckow et al., J. Virol., 67, 4566-79 (1993). See also O'Reilly et al, Baculovirus Expression Vectors: A Laboratory Manual (W. H. Freeman and Co., New York, N.Y., 1992). See also King et al., The Baculovirus Expression System: A Laboratory Guide (Chapman & Hall, London, England, 1992).
All full length MMPs were activated using 4-aminophenylmercuric acetate (“APMA”, Sigma Chemical, St. Louis, Mo.) or trypsin. MMP-9 also was activated using human recombinant MMP-3 following standard cloning and purification techniques.
The fluorogenic, methoxycoumarin-containing polypeptide substrate MCA-ArgProLeuGlyLeuDpaAlaArgGluArgNH2 was used as the MMP substrate in the MMP inhibition assays for human recombinant MMP-1, MMP-2, MMP-7, MMP-9, MMP-12, MMP-13, MMP-14 and MMP-15. Here, “MCA” is 7-methoxycoumarin-4-yl acetyl and “Dpa” is 3-(2,4-dinitrophenyl)-L-2,3-di-aminopropionyl group. In the absence of MMP inhibitory activity, the substrate is cleaved at the Gly-Leu peptide bond. The cleavage separates the highly fluorogenic peptide from the 2,4-dinitrophenyl quencher, resulting in an increase of fluorescent intensity.
For the human MMP-1, MMP-2, MMP-7, MMP-9, MMP-12, MMP-13, MMP-14 and MMP-15 assays, dilutions of the inhibitors (or salts thereof) were prepared in 100% dimethyl sulfoxide (DMSO). The stock solutions were diluted in Buffer A (100 mM Tris-HCl, 100 mM NaCl, 10 mM CaCl2, 0.005% polyoxyethylene 23 lauryl ether, pH 7.5) to obtain solutions with different compound concentrations, i.e., assay solutions with different concentrations of the assayed MMP inhibitory compound in 1% DMSO. The experiment controls contained the same amount of Buffer A/DMSO as the assayed sample, but contained no inhibitor.
as §3
The inhibitors are analyzed using a single low enzyme concentration with a single substrate concentration fixed at or below the Km. This protocol is a modification of method by Knight et al., FEBS Lett., 296(3), 263-266 (1992). Apparent inhibitory constants are determined by non-linear regression of reaction velocity as a function of inhibitor and enzyme concentration using Morrison's equation, as described by Kuzmic, Anal. Biochem. 286, 45-50 (2000). […]

T1 sequence (P08254 100-272 limits assumed): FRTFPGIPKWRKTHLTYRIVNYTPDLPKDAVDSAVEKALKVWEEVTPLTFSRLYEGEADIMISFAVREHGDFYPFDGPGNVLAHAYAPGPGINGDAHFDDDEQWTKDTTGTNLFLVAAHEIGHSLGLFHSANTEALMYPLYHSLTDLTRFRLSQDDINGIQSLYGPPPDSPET

Compound `COc1cccc(CNC(=O)c2nc3scc(COC[C@H]4CC[C@H](C#N)CC4)c3c(=O)[nH]2)c1` [Example 6, N-(3-Methoxybenzyl)-5-(((trans-4-cyanocyclohexyl)methoxy)methyl)-4-oxo-3,4-dihydrothieno[2,3-d]pyrimidine-2-carboxamide] has a Ki [1] of 468 nM and a Ki [2] of 0.747 nM.
`COc1cccc(CNC(=O)c2nc3ccc(F)c(OCCC4CCN(C(C)=O)CC4)c3c(=O)[nH]2)c1` [Example 32, 5-[2-(1-acetylpiperidin-4-yl)ethoxy]-6-fluoro-N-(3-methoxybenzyl)-4-oxo-3,4-dihydroquinazoline-2-carboxamide] was tested, and the Ki [1] was 1950 nM and the Ki [2] was 0.184 nM.
Compound `COc1cc(CNC(=O)c2nc3scc(COC[C@H]4CC[C@H](NC(=O)CO)CC4)c3c(=O)[nH]2)ccc1F` [Example 23, N-(4-Fluoro-3-methoxybenzyl)-5-((((trans-1,4)-4-(2-hydroxyacetamido)cyclohexyl)methoxy)methyl)-4-oxo-3,4-dihydrothieno[2,3-d]pyrimidine-2-carboxamide] has a Ki [1] of 453 nM and a Ki [2] of 0.582 nM.
In the case of `COc1cc(CNC(=O)c2nc3scc(COC[C@H]4CC[C@H](C(N)=O)CC4)c3c(=O)[nH]2)ccc1F` [Example 13, N-(4-Fluoro-3-methoxybenzyl)-5-(((trans-4-carbamoylcyclohexyl)methoxy)methyl)-4-oxo-3,4-dihydrothieno[2,3-d]pyrimidine-2-carboxamide], the Ki [1] is reported as 258 nM and the Ki [2] is reported as 0.141 nM.
`COc1cccc(CNC(=O)c2nc3scc(COC[C@H]4CC[C@H](NC(C)=O)CC4)c3c(=O)[nH]2)c1` [Example 17, 5-({[trans-4-(Acetylamino)cyclohexyl]methoxy}methyl)-N-(3-methoxybenzyl)-4-oxo-3,4-dihydrothieno[2,3-d]pyrimidine-2-carboxamide] gave a Ki [1] of 656 nM and a Ki [2] of 1.62 nM.
Compound `COc1cc(CNC(=O)c2nc3scc(COC[C@@H]4CO[C@@H](CO)CO4)c3c(=O)[nH]2)ccc1F` (relative stereo) [Example 11, N-(4-Fluoro-3-methoxybenzyl)-5-(((trans-5-(hydroxymethyl)-1,4-dioxan-2-yl)methoxy)methyl)-4-oxo-3,4-dihydrothieno[2,3-d]pyrimidine-2-carboxamide] has a Ki [1] of 663 nM and a Ki [2] of 11 nM.
With `COc1cccc(CNC(=O)c2nc3ccc(F)c(OCCC4CCNCC4)c3c(=O)[nH]2)c1` [Example 30, 6-fluoro-N-(3-methoxybenzyl)-4-oxo-5-(2-piperidin-4-ylethoxy)-3,4-dihydroquinazoline-2-carboxamide] the Ki [1] was 9420 nM and the Ki [2] was 1.91 nM.
`COc1cccc(CNC(=O)c2nc3scc(COCCC4CCNCC4)c3c(=O)[nH]2)c1` [Example 26, N-(3-methoxybenzyl)-4-oxo-5-[(2-piperidin-4-ylethoxy)methyl]-3,4-dihydrothieno[2,3-d]pyrimidine-2-carboxamide hydrochloride] showed a Ki [2] of 9.28 nM.
`COc1cccc(CNC(=O)c2nc3scc(COC[C@H]4CC[C@H](CO)CC4)c3c(=O)[nH]2)c1` [Example 4, N-(3-methoxybenzyl)-5-(((trans-4-(hydroxymethyl)cyclohexyl)methoxy)methyl)-4-oxo-3,4-dihydrothieno[2,3-d]pyrimidine-2-carboxamide] showed a Ki [1] of 337 nM and a Ki [2] of 0.471 nM.
Work on `COc1cccc(CNC(=O)c2nc3scc(COCCC4CCN(C(C)=O)CC4)c3c(=O)[nH]2)c1` [Example 28, 5-([2-(1-Acetylpiperidin-4-yl)ethoxy]methyl)-N-(3-methoxybenzyl)-4-oxo-3,4-dihydrothieno[2,3-d]pyrimidine-2-carboxamide] yielded a Ki [1] of 787 nM and a Ki [2] of 3.13 nM.
In the case of `COc1cccc(CNC(=O)c2nc3scc(COC[C@H]4CC[C@H](C(=O)O)CC4)c3c(=O)[nH]2)c1` [Example 5, Trans-4-(((2-((3-Methoxybenzyl)carbamoyl)-4-oxo-3,4-dihydrothieno[2,3-d]pyrimidin-5-yl)methoxy)methyl)cyclohexanecarboxylic acid], the Ki [1] is reported as 389 nM and the Ki [2] is reported as 0.221 nM.
Compound `COc1cccc(CNC(=O)c2nc3scc(COC[C@@H]4CO[C@@H](C(=O)O)CO4)c3c(=O)[nH]2)c1` (relative stereo) [Example 8, Trans-5-(((2-((3-Methoxybenzyl)carbamoyl)-4-oxo-3,4-dihydrothieno[2,3-d]pyrimidin-5-yl)methoxy)methyl)-1,4-dioxane-2-carboxylic acid] has a Ki [1] of 1310 nM and a Ki [2] of 4.16 nM.
`COc1cccc(CNC(=O)c2nc3scc(COC[C@H]4CC[C@H](NC(=O)CO)CC4)c3c(=O)[nH]2)c1` [Example 21, N-(3-Methoxybenzyl)-5-((((trans-1,4)-4-(2-hydroxyacetamido)cyclohexyl)methoxy)methyl)-4-oxo-3,4-dihydrothieno[2,3-d]pyrimidine-2-carboxamide] gave a Ki [1] of 672 nM and a Ki [2] of 1.25 nM.
For `COc1cccc(CNC(=O)c2nc3ccc(F)c(OC[C@@H]4CO[C@@H](CN)CO4)c3c(=O)[nH]2)c1` (relative stereo) [Example 36, 5-{[(trans 2,5)-5-(aminomethyl)-1,4-dioxan-2-yl]methoxy}-6-fluoro-N-(3-methoxybenzyl)-4-oxo-3,4-dihydroquinazoline-2-carboxamide], the Ki [2] was 19.9 nM.
`COc1cccc(CNC(=O)c2nc3scc(COC[C@H]4CC[C@H](N)CC4)c3c(=O)[nH]2)c1` [Example 1, 5-({[trans-4-Aminocyclohexyl]methoxy}methyl)-N-(3-methoxybenzyl)-4-oxo-3,4-dihydrothieno[2,3-d]pyrimidine-2-carboxamide] gave a Ki [2] of 13 nM.

Source: patent US20110009435A1, “HETERO BICYCLIC CARBOXAMIDE DERIVATIVES AND THEIR PHARMACEUTICAL USE AND COMPOSITIONS” (Pfizer, Inc., priority 2007, published 2011)
